Measured values reported in PMC5517562, “Design and discovery of novel monastrol-1,3,5-triazines as potent anti-breast cancer agent via attenuating Epidermal Growth Factor Receptor tyrosine kinase” (Scientific Reports, 2017).
Blank lines part the entries; values can stand above or below the compound they belong to.

Experiments:
[1] = tested on: WT EGFR; parameters: method as in PMID 22227214; conditions: cited from earlier work
[2] = tested on: A549; parameters: method as in PMID 22227214; conditions: read-out: IC50 antiproliferative activity A549; cited from earlier work
[3] = tested on: A431; parameters: method as in PMID 22227214; conditions: read-out: IC50 antiproliferative activity A431; cited from earlier work
[4] = tested on: NCIH1975; parameters: method as in PMID 22227214; conditions: read-out: IC50 antiproliferative activity NCIH1975; cited from earlier work
[5] = tested on: mutant EGFRT790M/L858R; parameters: method as in PMID 22227214; conditions: cited from earlier work
[6] = tested on: HepG2 (Hepatocellular carcinoma); assay: MTT in vitro cytotoxicity assay, HepG2; format: cell-based, human; conditions: Homo sapiens, NA: Not active
Protocol: (§1) The synthesized compounds were evaluated for in-vitro cytotoxic activity against various cell lines such as HeLa (cervical cancer), MCF-7 (breast cancer), HL-60 (Human promyelocytic leukemia), HepG2 (Hepatocellular carcinoma) and MCF 12A (normal epithelial cell) by the MTT assay method. […] The relationship between surviving fraction and drug concentration was plotted to obtain the survival curve of all the cancer cell lines HeLa, MCF-7, HL-60 and HepG2. The response parameter calculated was the IC50 values, which responds to the concentration required for 50% inhibition of cell viability. The in-vitro cytotoxic activity of the synthesized compounds is summarized Table 3.
(§2) The target compounds were subjected to in vitro cytotoxicity bioassay. In vitro cytotoxicity was determined using a standard MTT assay with protocol appropriate for the individual test system[29]–[31]. The four human cancer cell lines HeLa, MCF-7, HL-60, HepG2 and MCF-12A were cultured in the MEM medium supplemented with 10% FBS, 1% glutamine and […] gentamicin sulfate in a CO2 incubator in a humidified atmosphere of 5% CO2 and 95% air. The test compounds were prepared prior to the experiment by dissolving in 0.1% DMSO and diluted with medium. The cells were then exposed to different concentrations of drugs ([…]) in the volume of […]. Cells in the control wells received the same volume of medium containing 0.1% DMSO. After 24 h, the medium was removed and cell cultures were incubated with […] MTT reagent (1 mg/ml) for 5 h at 37 °C. The known number of cells ([…]) was incubated in a 5% CO2 incubator at 37 °C in the presence of different concentrations of test compounds. After 48 h of drug incubation, the MTT solution was added in each well and absorbance was recorded at 540 nm by an ELISA reader. The experiment was performed in triplicate. Cell survival was calculated as the percentage of MTT inhibition as % growth inhibition = 100 − (mean OD of individual test Group/Mean OD of each Control Group) × 100.

[7] = tested on: MCF-7 (breast cancer); assay: MTT in vitro cytotoxicity assay, MCF-7; format: cell-based, human; conditions: Homo sapiens, MCF7
Protocol: as §1, §2

[8] = molecular target: T1, EGFR-TK (Homo sapiens, UniProt P00533); assay: EGFR tyrosine kinase inhibitory activity (Kinase-Glo Plus luminescence); format: biochemical; conditions: for inhibition at 10 µM: read-out: Percent of Inhibition, EGFR tyrosine kinase; for %i: EGFR-TK percent inhibition as repeated in docking Table 5; for inhibition at 10 µM / Percent of Inhibition, EGFR tyrosine kinase: at 10 µM
T1 construct: 0.2 mg/mL Poly (Glu, Tyr) substrate, 10 mM ATP and EGFR
T1 sequence (P00533 25-1210): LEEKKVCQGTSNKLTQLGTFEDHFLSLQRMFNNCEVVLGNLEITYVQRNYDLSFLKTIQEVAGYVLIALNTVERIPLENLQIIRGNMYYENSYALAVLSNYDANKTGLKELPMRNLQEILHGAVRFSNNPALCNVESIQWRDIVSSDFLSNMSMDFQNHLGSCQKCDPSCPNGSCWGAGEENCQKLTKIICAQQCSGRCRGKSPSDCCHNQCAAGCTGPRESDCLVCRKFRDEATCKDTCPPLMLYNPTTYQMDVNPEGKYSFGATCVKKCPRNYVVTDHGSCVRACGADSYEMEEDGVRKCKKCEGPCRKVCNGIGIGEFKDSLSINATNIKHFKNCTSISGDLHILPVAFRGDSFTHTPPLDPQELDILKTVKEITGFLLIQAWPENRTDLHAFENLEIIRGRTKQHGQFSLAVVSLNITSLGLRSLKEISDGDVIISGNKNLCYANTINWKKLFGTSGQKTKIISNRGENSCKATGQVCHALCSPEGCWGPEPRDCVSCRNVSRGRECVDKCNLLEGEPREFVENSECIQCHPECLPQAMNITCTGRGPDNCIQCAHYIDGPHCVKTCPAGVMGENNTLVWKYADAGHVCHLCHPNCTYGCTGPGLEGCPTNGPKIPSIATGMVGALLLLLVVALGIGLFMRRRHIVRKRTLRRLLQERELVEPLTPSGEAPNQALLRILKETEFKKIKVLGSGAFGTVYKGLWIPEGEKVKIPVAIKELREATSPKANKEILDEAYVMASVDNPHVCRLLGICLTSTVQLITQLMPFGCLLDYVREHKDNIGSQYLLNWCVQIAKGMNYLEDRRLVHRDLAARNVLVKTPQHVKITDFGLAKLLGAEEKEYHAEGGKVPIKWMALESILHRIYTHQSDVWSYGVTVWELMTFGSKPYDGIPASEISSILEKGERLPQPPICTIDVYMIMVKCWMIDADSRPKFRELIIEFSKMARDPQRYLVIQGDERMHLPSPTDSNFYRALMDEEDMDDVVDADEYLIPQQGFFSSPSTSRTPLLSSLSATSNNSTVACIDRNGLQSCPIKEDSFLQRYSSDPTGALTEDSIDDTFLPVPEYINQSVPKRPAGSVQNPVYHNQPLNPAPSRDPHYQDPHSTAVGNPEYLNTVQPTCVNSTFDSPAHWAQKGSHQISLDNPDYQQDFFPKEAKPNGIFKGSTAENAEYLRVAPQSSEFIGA
Protocol: Kinase activity was determined using Kinase-Glo Plus luminescence kinase assay kit, by quantitating the amount of ATP remaining in the solution of kinase reaction. The luminescent signal is correlated with the residual amount present and it was inversely related with kinase activity. The tested compounds were diluted to 100 mM in 10% DMSO, then […] of the dilution was added to a 50 mL reaction. All of the enzymatic reactions were performed at 30 °C for 40 min, 50 mL of reaction mixture contains 10 mM MgCl2, 40 mM Tris, pH 7.4, 0.1 mg/mL BSA, 0.2 mg/mL Poly (Glu, Tyr) substrate, 10 mM ATP and EGFR. Incubate the plate for 5 min at r.t. then add 50 mL of Kinase-GloPlus Luminescence kinase assay to each reaction. ADP-Glo assay kit is the protein kinase assays used to determine IC50 values in which ADP generation was measured as it leads to an increase in luminescence signal. The reaction mixture was incubated in a 96-well plate at 30 °C for 30 min, after the incubation period add 25 mL of ADP-Glo reagent to terminate the assay. Shake the 96-well plate for 30 min at ambient temperature then incubate it, then add 50 mL of kinase detection reagent. Read the 96-well plate using the ADP-Glo Luminescence reader. All the assay components were added to the blank control except the substrate. By removing the blank control value you can obtain the corrected activity for each protein kinase target.

[9] = tested on: MCF 12A (normal epithelial breast cell line); assay: MTT assay on normal cells, MCF 12A; format: cell-based, human; conditions: normal epithelial breast cell MCF 12A; for IC50: Homo sapiens
Protocol: as §1
The presence of non-halogen substituent along with electron donating substituent seriously jeopardise the anticancer potential. […] To determine the selectivity of these molecules between normal and cancerous cells, the designed compounds were also tested against MCF 12A, a normal epithelial breast cell.
as §2

[10] = tested on: HL-60 (Human promyelocytic leukemia); assay: MTT in vitro cytotoxicity assay, HL-60; format: cell-based; conditions: Homo sapiens
Protocol: as §1, §2

[11] = tested on: HeLa (cervical cancer); assay: MTT in vitro cytotoxicity assay, HeLa; format: cell-based, human; conditions: Homo sapiens
Protocol: as §1, §2

Compound: CC(C)Nc1nc(N/N=C/c2cc(Br)c(O)c(Br)c2O)nc(Nc2ccc(F)cc2)n1 [1a]
IC50 [1]: 25.9 µM
IC50 [2]: 7.7 ± 1.3 µM
IC50 [3]: 8 ± 1.6 µM
IC50 [4]: 10.5 ± 0.9 µM
IC50 [5]: 6.5 µM

Compound: CNc1nc(N/N=C/c2ccc(O)cc2)nc(Nc2ccccc2)n1 [1f]
IC50 [1]: > 100 µM
IC50 [5]: 30.7 µM

Compound: CCOC(=O)C1=C(C)N(c2nc(Nc3cccc(Br)c3)nc(Nc3cccc(Br)c3)n2)C(=S)NC1c1ccccc1O (stereo not drawn) [7e, Ethyl 1-(4,6-bis((3-bromophenyl)amino)-1,3,5-triazin-2-yl)-4-(2-hydroxyphenyl)-6-methyl-2-thioxo-1,2,3,4-tetrahydropyrimidine-5-carboxylate]
melting point: 245 to 247 °C
IC50 [6]: 65.6 ± 0.45 µM
IC50 [7]: 67.8 ± 0.61 µM
inhibition at 10 µM [8]: 78.5%
IC50 [9]: 89.45 ± 0.45 µM
IC50 [10]: 57.4 ± 0.52 µM
IC50 [11]: 63.9 ± 0.25 µM

Compound: CCOC(=O)C1=C(C)N(c2nc(Nc3ccccc3Cl)nc(Nc3ccccc3Cl)n2)C(=S)NC1c1ccc(OC)cc1 (stereo not drawn) [7f, Ethyl 1-(4,6-bis((2-chlorophenyl)amino)-1,3,5-triazin-2-yl)-4-(4-methoxyphenyl)-6-methyl-2-thioxo-1,2,3,4-tetrahydropyrimidine-5-carboxylate]
melting point: 91 to 93 °C
IC50 [6]: 46.5 ± 0.36 µM
IC50 [7]: 64 ± 0.38 µM
inhibition at 10 µM [8]: 81.4%
IC50 [9]: 82.14 ± 0.21 µM
IC50 [10]: 47 ± 0.54 µM
IC50 [11]: 55.4 ± 0.12 µM

Compound: CCOC(=O)C1=C(C)N(c2nc(Nc3ccc([N+](=O)[O-])cc3)nc(Nc3ccc([N+](=O)[O-])cc3)n2)C(=S)NC1c1ccc(Cl)cc1 (stereo not drawn) [7h, Ethyl 1-(4,6-bis((4-nitrophenyl)amino)-1,3,5-triazin-2-yl)-4-(4-chlorophenyl)-6-methyl-2-thioxo-1,2,3,4-tetrahydropyrimidine-5-carboxylate]
melting point: 146 to 147 °C
IC50 [6]: 69.6 ± 0.38 µM
IC50 [7]: 71.5 ± 0.46 µM
%i [8]: 69.1%
Percent of Inhibition, EGFR tyrosine kinase [8]: 69.1%
inhibition at 10 µM [8]: ~69%
IC50 MCF 12A [9]: non-toxic
IC50 [10]: 61.4 ± 0.36 µM
IC50 [11]: 73.4 ± 0.65 µM

Compound: CCOC(=O)C1=C(C)N(c2nc(Nc3ccccc3[N+](=O)[O-])nc(Nc3ccccc3[N+](=O)[O-])n2)C(=S)NC1c1cccc(Br)c1 (stereo not drawn) [7i, Ethyl 1-(4,6-bis((2-nitrophenyl)amino)-1,3,5-triazin-2-yl)-4-(3-bromophenyl)-6-methyl-2-thioxo-1,2,3,4-tetrahydropyrimidine-5-carboxylate]
melting point: 185 to 186 °C
IC50 [6]: 71.6 ± 0.29 µM
IC50 [7]: 76.4 ± 0.33 µM
%i [8]: 69.3%
Percent of Inhibition, EGFR tyrosine kinase [8]: 69.3%
inhibition at 10 µM [8]: ~69%
IC50 MCF 12A [9]: non-toxic
IC50 [10]: 66.7 ± 0.67 µM
IC50 [11]: 76 ± 0.54 µM

Second part, led by results:

melting point: 132 to 135 °C
inhibition at 10 µM [8]: 94.3%
Compound: CCOC(=O)C1=C(C)N(c2nc(Nc3cccc(F)c3)nc(Nc3cccc(F)c3)n2)C(=S)NC1c1ccccc1OC (stereo not drawn) [7g, Ethyl 1-(4,6-bis((3-fluorophenyl)amino)-1,3,5-triazin-2-yl)-4-(2-methoxyphenyl)-6-methyl-2-thioxo-1,2,3,4-tetrahydropyrimidine-5-carboxylate]
IC50 [6]: 36.3 ± 0.47 µM
IC50 [7]: 47.4 ± 0.27 µM
IC50 [9]: 77.22 ± 0.34 µM
IC50 [10]: 31.5 ± 0.21 µM
IC50 [11]: 42.1 ± 0.12 µM

melting point: 112 to 114 °C
inhibition at 10 µM [8]: 82.4%
Compound: CCOC(=O)C1=C(C)N(c2nc(Nc3ccc(Cl)cc3)nc(Nc3ccc(Cl)cc3)n2)C(=S)NC1c1ccccc1Cl (stereo not drawn) [7j, Ethyl 1-(4,6-bis((4-chlorophenyl)amino)-1,3,5-triazin-2-yl)-4-(2-chlorophenyl)-6-methyl-2-thioxo-1,2,3,4-tetrahydropyrimidine-5-carboxylate]
IC50 [6]: 38.7 ± 0.32 µM
IC50 [7]: 57 ± 0.47 µM
IC50 [9]: 69.13 ± 0.62 µM
IC50 [10]: 39.6 ± 0.78 µM
IC50 [11]: 46.2 ± 0.56 µM

melting point: 153 to 155 °C
inhibition at 10 µM [8]: 88.5%
Compound: CCOC(=O)C1=C(C)N(c2nc(Nc3cccc(Cl)c3)nc(Nc3cccc(Cl)c3)n2)C(=S)NC1c1ccc(F)cc1 (stereo not drawn) [7m, Ethyl 1-(4,6-bis((3-chlorophenyl)amino)-1,3,5-triazin-2-yl)-4-(4-fluorophenyl)-6-methyl-2-thioxo-1,2,3,4-tetrahydropyrimidine-5-carboxylate]
IC50 [6]: 39.3 ± 0.12 µM
IC50 [7]: 53.8 ± 0.28 µM
IC50 [9]: 73.56 ± 0.4 µM
IC50 [10]: 36.5 ± 0.48 µM
IC50 [11]: 42.1 ± 0.34 µM
